From paper PMC6199744, “Development of Chemical Proteomics for the Folateome and Analysis of the Kinetoplastid Folateome” (ACS Infectious Diseases, 2018)
Where two headings read alike, the source gives them in different places.

Test system: T. brucei lysate proteins
Assay type: binding, Trypanosoma brucei

CCCCCCOc1ccc(Cc2cnc(N)nc2N)cc1 [compound 1]
fold change (relative to vehicle control = 1, protein TB09.160.3270 ATP-DEPENDENT DEAD BOX HELICASE, PUTATIVE): 0.99
fold change (relative to vehicle control = 1, protein TB09.160.4250 TR[…]): 0.87
fold change (relative to vehicle control = 1, protein TB09.211.3540 GLYCEROL KINASE, GLYCOSOMAL): 0.92
fold change (relative to vehicle control = 1, protein TB11.01.0450 PROTEIN PHOSPHATASE 1, PUTATIVE): 0.96
fold change (relative to vehicle control = 1, protein TB11.01.1270 NUCLEIC ACID BINDING PROTEIN, PUTATIVE): 0.97
fold change (relative to vehicle control = 1, protein TB11.01.1290 14-3-3-I PROTEIN): 0.77
fold change (relative to vehicle control = 1, protein TB11.02.1135 DYNEIN LIGHT CHAIN, PUTATIVE): 0.88
fold change (relative to vehicle control = 1, protein TB11.02.4700 14-3-3 PROTEIN): 0.96
fold change (relative to vehicle control = 1, protein TB11.03.0815 DYNEIN LIGHT CHAIN): 0.76
fold change (relative to vehicle control = 1, protein TB11.50.0007 DYNEIN LIGHT CHAIN LC8, PUTATIVE): 0.99
fold change (relative to vehicle control = 1, protein TB427TMP.01.1400 GLYCYL-TRNA SYNTHETASE, PUTATIVE): 0.88
fold change (relative to vehicle control = 1, protein TB427TMP.01.1830 HY[…], CONSERVED): 0.86
fold change (relative to vehicle control = 1, protein TB427TMP.01.3370 […] PROTEIN, PUTATIVE): 0.94
fold change (relative to vehicle control = 1, protein TB427TMP.01.6880 CYTOSOLIC COAT PROTEIN, PUTATIVE): 0.88
fold change (relative to vehicle control = 1, protein TB427TMP.01.7490 HY[…], CONSERVED): 0.95
fold change (relative to vehicle control = 1, protein TB427TMP.01.7530 HY[…], CONSERVED): 0.92
fold change (relative to vehicle control = 1, protein TB427TMP.02.0750 T-COMPLEX PROTEIN 1, ZETA SUBUNIT, PUTATIVE): 0.94
fold change (relative to vehicle control = 1, protein TB427TMP.02.1120 ADENYL[…], PUTATIVE): 0.93
fold change (relative to vehicle control = 1, protein TB427TMP.02.1460 HY[…], CONSERVED): 0.82
fold change (relative to vehicle control = 1, protein TB427TMP.02.3120 MALIC ENZYME, PUTATIVE): 0.77
fold change (relative to vehicle control = 1, protein TB427TMP.02.4550 HY[…], CONSERVED): 0.91
fold change (relative to vehicle control = 1, protein TB427TMP.02.5450 GLUCOSE-REGULATED PROTEIN 78, PUTATIVE): 0.89
fold change (relative to vehicle control = 1, protein TB427TMP.02.5660 HY[…], CONSERVED): 0.82
fold change (relative to vehicle control = 1, protein TB427TMP.03.0090 RIBOKINASE, PUTATIVE): 0.87
fold change (relative to vehicle control = 1, protein TB427TMP.03.0460 HY[…], CONSERVED): 0.85
fold change (relative to vehicle control = 1, protein TB427TMP.160.4770 PROTEIN KINASE, PUTATIVE): 0.92
fold change (relative to vehicle control = 1, protein TB427TMP.160.4910 FLAVOPROTEIN MONOOXYGENASE, PUTATIVE): 0.89
fold change (relative to vehicle control = 1, protein TB427TMP.22.0004 HY[…], CONSERVED): 0.97
fold change (relative to vehicle control = 1, protein TB427.01.3830 GLUCOSE-6-PHOSPHATE ISOMERASE, GLYCOSOMAL): 1
fold change (relative to vehicle control = 1, protein TB427.01.4050 PROTEIN P[…] EF-HAND DOMAINS (PPEF)): 0.94
fold change (relative to vehicle control = 1, protein TB427.02.1170 RETRO[…] SPOT (RHS) PROTEIN, PUTATIVE): 0.85
fold change (relative to vehicle control = 1, protein TB427.02.6220 ADENOSINE TRANSPORTER 2, PUTATIVE): 0.95
fold change (relative to vehicle control = 1, protein TB427.03.3160 POLY(A) POLYMERASE): 0.97
fold change (relative to vehicle control = 1, protein TB427.03.3560 HY[…], CONSERVED): 0.92
fold change (relative to vehicle control = 1, protein TB427.03.4190 ENDOSOMAL INTEGRAL MEMBRANE PROTEIN, PUTATIVE): 0.99
fold change (relative to vehicle control = 1, protein TB427.03.5420 PROTEIN TRANSPORT PROTEIN SEC24): 0.8
fold change (relative to vehicle control = 1, protein TB427.04.1510 PHOSPHOLIPID-TRA[…], PUTATIVE): 0.88
fold change (relative to vehicle control = 1, protein TB427.05.1320 HY[…], CONSERVED): 0.97
fold change (relative to vehicle control = 1, protein TB427.05.300 THYMINE-7-HYDROXYLASE, PUTATIVE): 0.92
fold change (relative to vehicle control = 1, protein TB427.05.3800 GLUTAMINE HYDROLYSING (NOT AMMONIA-DEPENDENT) […] PHOSPHATE SYNTHASE, PUTATIVE): 0.88
fold change (relative to vehicle control = 1, protein TB427.05.4530 FATTY ACID ELONGASE, PUTATIVE): 0.75
fold change (relative to vehicle control = 1, protein TB427.06.2550 RNA-BINDING PROTEIN, PUTATIVE): 0.89
fold change (relative to vehicle control = 1, protein TB427.06.3650 ADP-RI[…], PUTATIVE): 0.84
fold change (relative to vehicle control = 1, protein TB427.06.3860 HY[…], CONSERVED): 0.55
fold change (relative to vehicle control = 1, protein TB427.07.2340 40S RIBOSOMAL PROTEIN S15, PUTATIVE): 0.82
fold change (relative to vehicle control = 1, protein TB427.07.2570 MRNA […], PUTATIVE): 0.69
fold change (relative to vehicle control = 1, protein TB427.07.7500 THYMINE-7-HYDROXYLASE, PUTATIVE): 0.94
fold change (relative to vehicle control = 1, protein TB427.08.3150 T-COMPLEX PROTEIN 1, GAMMA SUBUNIT, PUTATIVE): 0.9
fold change (relative to vehicle control = 1, protein TB427.08.3490 HY[…], CONSERVED): 0.94
fold change (relative to vehicle control = 1, protein TB427.08.5460 FLAGELLAR CALCIUM-BINDING PROTEIN): 0.99
fold change (relative to vehicle control = 1, protein TB427.08.6110 HY[…], CONSERVED): 0.71
fold change (relative to vehicle control = 1, protein TB427.10.11930 NAD OR NADP DEPENDENT OXIDOREDUCTASE, PUTATIVE): 0.63
fold change (relative to vehicle control = 1, protein TB427.10.12510 P-TYPE H+-ATPASE, PUTATIVE): 0.99
fold change (relative to vehicle control = 1, protein TB427.10.13110 DYNEIN LIGHT CHAIN, PUTATIVE): 0.86
fold change (relative to vehicle control = 1, protein TB427.10.13880 HY[…], CONSERVED): 0.88
fold change (relative to vehicle control = 1, protein TB427.10.14140 PYRUVATE KINASE 1): 0.98
fold change (relative to vehicle control = 1, protein TB427.10.14910 SA[…] GLYCOPROTEIN, PUTATIVE): 1
fold change (relative to vehicle control = 1, protein TB427.10.15180 […] PROTEIN, PUTATIVE): 0.82
fold change (relative to vehicle control = 1, protein TB427.10.2350 PYRUVATE DEH[…] E3 BINDING PROTEIN, PUTATIVE): 0.7
fold change (relative to vehicle control = 1, protein TB427.10.4940 NUCLEAR DBF2-RELATED KINASE): 0.93
fold change (relative to vehicle control = 1, protein TB427.10.7630 HY[…], CONSERVED): 0.98
fold change (relative to vehicle control = 1, protein TB427.10.9800 60S RIBOSOMAL PROTEIN L22): 1
fold change (relative to vehicle control = 1, protein TB927.10.12840 MIT[…] PROTEIN, PUTATIVE): 0.8
fold change (relative to vehicle control = 1, protein TB927.10.13780 GLYCOGEN SYNTHASE KINASE 3): 0.99
fold change (relative to vehicle control = 1, protein TB927.10.14980 INTR[…] PROTEIN IFT52, PUTATIVE): 0.96
fold change (relative to vehicle control = 1, protein TB927.1.2330 BETA TUBULIN): 0.9
fold change (relative to vehicle control = 1, protein TB927.1.2400 ALPHA TUBULIN): 0.89
fold change (relative to vehicle control = 1, protein TB927.10.3280 60S RIBOSOMAL PROTEINS L38, PUTATIVE): 0.97
fold change (relative to vehicle control = 1, protein TB927.10.4180 TFIIF-[…] PHOSPHATASE, PUTATIVE): 0.98
fold change (relative to vehicle control = 1, protein TB927.10.5330 40S RIBOSOMAL PROTEIN S18, PUTATIVE): 1.1
fold change (relative to vehicle control = 1, protein TB927.10.5500 HY[…], CONSERVED): 0.92
fold change (relative to vehicle control = 1, protein TB927.10.6670 DYNEIN LIGHT CHAIN, PUTATIVE): 0.95
fold change (relative to vehicle control = 1, protein TB927.2.2440 […]-ATPASE SUBUNIT 6): 0.96
fold change (relative to vehicle control = 1, protein TB927.2.2510 HY[…], CONSERVED): 0.96
fold change (relative to vehicle control = 1, protein TB927.2.3800 MRNA […], PUTATIVE): 0.87
fold change (relative to vehicle control = 1, protein TB927.3.1120 GTP-BINDING NUCLEAR PROTEIN RTB2, PUTATIVE): 0.91
fold change (relative to vehicle control = 1, protein TB927.3.3490 HIGH MOBILITY GROUP PROTEIN, PUTATIVE): 0.88
fold change (relative to vehicle control = 1, protein TB927.4.4650 […] SYNTHASE, PUTATIVE): 0.79
fold change (relative to vehicle control = 1, protein TB927.4.5310 SERINE/THREONINE-PROTEIN KINASE A, PUTATIVE): 0.99
fold change (relative to vehicle control = 1, protein TB927.5.1930 HY[…], CONSERVED): 0.78
fold change (relative to vehicle control = 1, protein TB927.6.2200 HY[…], CONSERVED): 0.92
fold change (relative to vehicle control = 1, protein TB927.6.4140 PAR[…] COMPONENT, PUTATIVE): 0.9
fold change (relative to vehicle control = 1, protein TB927.7.2500 […] SUBUNIT 1): 0.95
fold change (relative to vehicle control = 1, protein TB927.7.2700 NADH-CYTOCHROME B5 REDUCTASE, PUTATIVE): 0.76
fold change (relative to vehicle control = 1, protein TB927.7.4480 ADENOSINE 5'-[…], PUTATIVE): 0.83
fold change (relative to vehicle control = 1, protein TB927.7.4500 HY[…], CONSERVED): 0.97
fold change (relative to vehicle control = 1, protein TB927.8.1510 ATP-DEPENDENT DEAD/H RNA HELICASE, PUTATIVE): 0.94
fold change (vs vehicle control, protein TB09.160.3710 PRO[…] NUCLEAR ANTIGEN (PCNA), PUTATIVE): 0.96
fold change (vs vehicle control, protein TB11.01.4370 HY[…], CONSERVED): 0.98
fold change (vs vehicle control, protein TB427TMP.01.5690 DRBD4): 0.94
fold change (vs vehicle control, protein TB427.01.1670 HY[…], CONSERVED): 0.91
fold change (vs vehicle control, protein TB427.04.760 GAMMA-ADAPTIN 1, PUTATIVE): 0.93
fold change (vs vehicle control, protein TB427.07.1420 HY[…], CONSERVED): 0.92
fold change (vs vehicle control, protein TB427.10.11760 PUMILIO/PUF RNA BINDING PROTEIN 6): 0.96
fold change (vs vehicle control, protein TB427.10.2290 CHAPERONE PROTEIN DNAJ, PUTATIVE): 0.8
fold change (vs vehicle control, protein TB927.5.1630 HY[…], CONSERVED): 0.91
